# Laboratory results from US8304446B2, “Compounds” (Glaxo Group Limited, priority 2009, dated 2012).
# Counter-ions that a name gives are not always drawn.
# System: CD4+ CCR4+ T cells
# Assay: Chemokine stimulated increases in cellular F-actin content
# Format: cell-based
# Details: Homo sapiens, T-cell, 0.5 h; PBMC from normal volunteers; antagonist 30 min at 37° C. before agonist for 15 sec; F-actin content by flow cytometry; read-out: pA2 (converted)
# Description: Chemokine Stimulated Increases in Cellular F-Actin Content
# Blood was taken from normal volunteers who had taken no medication within the previous ten days and mixed with 1/9 of the volume of 3.8% tri-sodium citrate solution. Chemokine-induced increases in the F-actin content of CD4+ CCR4+ T cells were measured by a modification of the method of Pilette et al. (Eur. Respir. J; 23: 876-884, 2004). Peripheral blood mononuclear cells (PBMC) were isolated by dextran sedimentation followed by Percoll density gradient centrifugation. The PBMCs were incubated with FITC-conjugated anti-human CD4 and PE-conjugated anti-CCR4 antibodies or appropriate isotype controls for 15 min. The cell suspensions were then centrifuged at 400 g for 10 min and the pellets resuspended in assay buffer (phenol red-free RPMI 1640 medium containing 10 mM HEPES and 0.1% bovine serum albumin) at 10^7/mL. The resulting cell suspension was incubated with antagonist or vehicle (0.1% DMSO) for 30 min at 37° C. before stimulation with the agonist for 15 sec. The assay was terminated by addition of 3% formaldehyde. The fixed cells were washed twice with PBS (centrifuging at 1000 g for 5 min to recover the cells) and incubated at room temperature with Alexa fluor-647 phalloidin (0.075 U/mL) in the presence of lyso-phosphatidylcholine (93.75 μg/ml) for 20 min to stain F-actin. The cells were washed once more with PBS and the relative F-actin content of the cells was measured flow cytometrically. The mean fluorescence intensity of 1000 CD4^+ CCR4^+ cells per sample was determined and expressed as a fraction of the mean intensity of the CD4^+ CCR4^− cells in that sample.
row,SMILES,Kb
1,"COc1cccc2c1c(NS(=O)(=O)c1ccc(Cl)s1)nn2Cc1cccc(CNC(=O)C2(N)CC2)c1 [Example 84, 1-Amino-N-[(3-{[3-{[(5-chloro-2-thienyl)sulfonyl]amino}-4-(methyloxy)-1H-indazol-1-yl]methyl}phenyl)methyl]cyclopropanecarboxamide trifluoroacetate]",≤ 0.126 µM
2,"COc1cccc2c1c(NS(=O)(=O)c1ccc(Cl)s1)nn2Cc1cccc(CNC(=O)[C@@H](N)CCC(N)=O)c1 [Example 79, N^1-[(3-{[3-{[(5-Chloro-2-thienyl)sulfonyl]amino}-4-(methyloxy)-1H-indazol-1-yl]methyl}phenyl)methyl]-L-glutamamide formate salt]",≤ 0.126 µM
3,"COc1cccc2c1c(NS(=O)(=O)c1ccc(Cl)s1)nn2Cc1cccc(CNC(=O)[C@@H]2CCCN2C)c1 [Example 39, N-[(3-{[3-{[(5-Chloro-2-thienyl)sulfonyl]amino}-4-(methyloxy)-1H-indazol-1-yl]methyl}phenyl)methyl]-methyl-L-prolinamide trifluoroacetate]",≤ 0.126 µM
4,"COc1cccc2c1c(NS(=O)(=O)c1ccc(Cl)s1)nn2Cc1cccc(CNC(=O)CC2CCCN2)c1 (centres unmarked) [Example 24, N-[(3-{[3-{[(5-chloro-2-thienyl)sulfonyl]amino}-4-(methyloxy)-1H-indazol-1-yl]methyl}phenyl)methyl]-2-(2-pyrrolidinyl)acetamide trifluoroacetate]",≤ 0.126 µM
5,"COc1cccc2c1c(NS(=O)(=O)c1ccc(Cl)s1)nn2Cc1cccc(CNC(=O)[C@H]2CCCN2C)c1 [Example 40, N-[(3-{[3-{[(5-Chloro-2-thienyl)sulfonyl]amino}-4-(methyloxy)-1H-indazol-1-yl]methyl}phenyl)methyl]-1-methyl-D-prolinamide trifluoroacetate]",≤ 0.126 µM
6,"COCCN(C)CC(=O)NCc1cccc(Cn2nc(NS(=O)(=O)c3ccc(Cl)s3)c3c(OC)cccc32)c1 [Example 36, N^1-[(3-{[3-{[(5-Chloro-2-thienyl)sulfonyl]amino}-4-(methyloxy)-1H-indazol-1-yl]methyl}phenyl)methyl]-N^2-methyl-N^2-[2-(methyloxy)ethyl]glycinamide trifluoroacetate]",≤ 0.126 µM
7,"COc1cccc2c1c(NS(=O)(=O)c1ccc(Cl)s1)nn2Cc1cccc(CNC(=O)C2CCCO2)c1 (centres unmarked) [Example 89, N-[(3-{[3-{[(5-Chloro-2-thienyl)sulfonyl]amino}-4-(methyloxy)-1H-indazol-1-yl]methyl}phenyl)methyl]tetrahydro-2-furancarboxamide]",≤ 0.126 µM
8,"COc1cccc2c1c(NS(=O)(=O)c1ccc(Cl)s1)nn2Cc1cccc(CNC(=O)c2cnco2)c1 [Example 38, N-[(3-{[3-{[(5-Chloro-2-thienyl)sulfonyl]amino}-4-(methyloxy)-1H-indazol-1-yl]methyl}phenyl)methyl]-1,3-oxazole-5-carboxamide]",≤ 0.126 µM
9,"COc1cccc2c1c(NS(=O)(=O)c1ccc(Cl)s1)nn2Cc1cccc(CNC(=O)[C@@H]2CCCN2)c1 [Example 158, N-[(3-{[3-{[(5-Chloro-2-thienyl)sulfonyl]amino}-4-(methyloxy)-1H-indazol-1-yl]methyl}phenyl)methyl]-L-prolinamide trifluoroacetate]",≤ 0.126 µM
10,"COc1cccc2c1c(NS(=O)(=O)c1ccc(Cl)s1)nn2Cc1cccc(OCCN(C)C)c1 [Example 74, 5-Chloro-N-[1-[(3-{[2-(dimethylamino)ethyl]oxy}phenyl)methyl]-4-(methyloxy)-1H-indazol-3-yl]-2-thiophenesulfonamide]",≤ 0.126 µM
11,"CCNC(=O)NCc1cccc(Cn2nc(NS(=O)(=O)c3ccc(Cl)s3)c3c(OC)cccc32)c1 [Example 113, 5-Chloro-N-[1-{[3-({[(ethylamino)carbonyl]amino}methyl)phenyl]methyl}-4-(methyloxy)-1H-indazol-3-yl]-2-thiophenesulfonamide]",≤ 0.126 µM
